Measurements as given in PubChem BioAssay (NCI).
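1) Cells in 96-well plates. 2) Compound, 48 h, 5 concentrations. 3) Linear interpolation between surrounding doses. 4) Unreached endpoint = highest concentration. GI50: concentration for 50% inhibition of growth. At the TGI there is no net growth.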

Key:
Assay in all cases: NCI tumour cell line growth inhibition, 48 h; in the data active = GI50 below about 0.43 µM; inactive = the rest
[1] = system: SF-268 CNS
[2] = system: NCI-H460 lung
[3] = system: HOP-92 NSCLC
[4] = system: 786-0 renal
[5] = system: SF-295 CNS
[6] = system: LOX IMVI melanoma
[7] = system: NCI/ADR-RES ovarian
[8] = system: UACC-62 melanoma
[9] = system: NCI-H522 lung
[10] = system: MOLT-4 leukemia
[11] = system: HCT-15 colon
[12] = system: CCRF-CEM leukemia
[13] = system: UO-31 renal
[14] = system: EKVX NSCLC
[15] = system: NCI-H23 lung
[16] = system: HT29 colon
[17] = system: HCC-2998 colon
[18] = system: ACHN renal
[19] = system: DU-145 prostate
[20] = system: SK-MEL-28 melanoma
[21] = system: A498 renal
[22] = system: HCT-116 colon
[23] = system: KM12 colon
[24] = system: SNB-75 CNS
[25] = system: U251 CNS
[26] = system: TK-10 renal
[27] = system: SN12C renal
[28] = system: OVCAR-4 ovarian
[29] = system: PC-3 prostate
[30] = system: HOP-62 NSCLC
[31] = system: T-47D breast
[32] = system: SW-620 colon
[33] = system: SK-MEL-5 melanoma
[34] = system: NCI-H226 lung
[35] = system: HS 578T breast
[36] = system: HL-60(TB) leukemia
[37] = system: M14 melanoma
[38] = system: SF-539 CNS
[39] = system: RXF 393 renal
[40] = system: K-562 leukemia
[41] = system: A549 NSCLC
[42] = system: SK-OV-3 ovarian
[43] = system: OVCAR-5 ovarian
[44] = system: MDA-MB-435
[45] = system: BT-549 breast
[46] = system: SR leukemia
[47] = system: SK-MEL-2 melanoma
[48] = system: IGROV1 ovarian
[49] = system: COLO 205 colon
[50] = system: MALME-3M melanoma
[51] = system: SNB-19 CNS
[52] = system: OVCAR-8 ovarian
[53] = system: MCF7 breast
[54] = system: CAKI-1 renal
[55] = system: MDA-MB-231 breast
[56] = system: OVCAR-3 ovarian
[57] = system: RPMI-8226 leukemia
[58] = system: UACC-257 melanoma

CCN1C(=S)N(c2ccccc2)C2NC(=S)N(/N=C/C=C/c3ccccc3OC)C21 (configuration not stated)
> 23100 nM: TGI [34]
732 nM: TGI [38]
3140 nM: TGI [33]
721 nM: TGI [56]
28500 nM: TGI [19]
650 nM: TGI [39]
2160 nM: TGI [49]
inactive: GI50 [1] 706 nM | GI50 [3] 3980 nM | GI50 [4] 639 nM | GI50 [6] 482 nM | GI50 [10] 548 nM | GI50 [13] 675 nM | GI50 [14] 505 nM | GI50 [15] 658 nM | GI50 [17] 538 nM | GI50 [18] 556 nM | GI50 [20] 1470 nM | GI50 [27] 541 nM | GI50 [28] 839 nM | GI50 [30] 487 nM | GI50 [31] > 100000 nM | GI50 [34] 962 nM | GI50 [41] 607 nM | GI50 [42] 647 nM | GI50 [43] 690 nM | GI50 [45] 954 nM | GI50 [47] 612 nM | GI50 [48] 606 nM | GI50 [49] 435 nM | GI50 [50] 957 nM | GI50 [51] 496 nM | GI50 [52] 487 nM | GI50 [55] 544 nM | GI50 [58] > 100000 nM
4360 nM: TGI [24]
> 100000 nM: TGI [2] | TGI [3] | TGI [4] | TGI [5] | TGI [6] | TGI [7] | TGI [8] | TGI [10] | TGI [11] | TGI [12] | TGI [13] | TGI [14] | TGI [15] | TGI [17] | TGI [18] | TGI [20] | TGI [22] | TGI [25] | TGI [26] | TGI [27] | TGI [28] | TGI [29] | TGI [30] | TGI [31] | TGI [32] | TGI [35] | TGI [37] | TGI [40] | TGI [41] | TGI [42] | TGI [43] | TGI [47] | TGI [48] | TGI [50] | TGI [51] | TGI [52] | TGI [53] | TGI [54] | TGI [58]
> 24800 nM: TGI [57]
1260 nM: TGI [9]
> 64800 nM: TGI [23]
600 nM: TGI [36]
> 91000 nM: TGI [1]
active: GI50 [2] 370 nM | GI50 [5] 263 nM | GI50 [7] 307 nM | GI50 [8] 421 nM | GI50 [9] 224 nM | GI50 [11] 344 nM | GI50 [12] 362 nM | GI50 [16] 329 nM | GI50 [19] 356 nM | GI50 [21] 235 nM | GI50 [22] 360 nM | GI50 [23] 323 nM | GI50 [24] 211 nM | GI50 [25] 393 nM | GI50 [29] 398 nM | GI50 [32] 404 nM | GI50 [33] 322 nM | GI50 [35] 359 nM | GI50 [36] 245 nM | GI50 [37] 304 nM | GI50 [38] 253 nM | GI50 [39] 189 nM | GI50 [40] 302 nM | GI50 [44] 77.5 nM | GI50 [46] 300 nM | GI50 [53] 331 nM | GI50 [54] 298 nM | GI50 [56] 267 nM | GI50 [57] 377 nM
> 27400 nM: TGI [55]
833 nM: TGI [21]
337 nM: TGI [44]
